Source: patent US10174013B2, “Benzimidazole derivatives as kinase inhibitors” (SELVITA S.A., priority 2012, dated 2019)
Where a name gives a salt, the structure may show the parent alone. Read-outs that look alike come from different tables or passages of the source.

Legend:
FLT3wt = FLT3wt (Homo sapiens (Human), UniProt P36888); experiment: ADP-Glo Kinase Assay, Flt3 wt; format: biochemical; conditions: 1 μM compound; for inhibition at 1 µM: read-out: Flt3wt % INH (1 μM)
How it was run: (§1)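 ADP-Glo luminescent ADP detection of human kinase activity in 5 mM MOPS pH 7.5, 5 mM MgCl2, 0.4 mM EDTA, 1.5 mM DTT. ATP at each kinase's apparent Km; compounds diluted to 1000 nM in assay buffer. Percent inhibition from normalised luminescence.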

HEL92 cells = experiment: Growth inhibition, MTS assay, HEL92; format: cell-based, Human; conditions: MTS cell viability, read-out: HEL92 ED50
HepG2 cells = experiment: Growth inhibition, MTS assay, HepG2; format: cell-based, Human; conditions: MTS cell viability, read-out: HepG2 ED50
SW-480 cells = experiment: Growth inhibition, MTS assay, SW-480; format: cell-based, Human; conditions: 72 hours, MTS cell viability, read-out: SW-480 ED50
Text: The following cell lines, were obtained and used in tests as outlined below: • Human myelomonocytic, biphenotypic leukemia MV4-11 cells (harboring a Flt3-ITD mutation); • Human Acute Myeloid Leukemia MOLM16 cells; • Human Acute Myeloid Leukemia MOLM13 cells (harboring a Flt3-ITD mutation); • Human Myeloid Leukemia KG-1 cells; • Human erythroleukemia HEL92 cells; • Human mantle cell lymphoma Jeko-1 cells; • Human hepatocellular carcinoma HepG2 cells; and • Human colon adenocarcinoma SW-480 cells.
The assays were carried out according to the following protocol, which is described as an example for the MV4-11 cells:
Ten thousand MV4-11 cells were inoculated into each well of a 96-well microplate (manufactured by Corning Corp.) using Iscove's MDM medium (culture medium) containing 10% fetal calf serum (FCS). The same day, a dimethyl sulfoxide (DMSO) solution of each test compound prepared in a concentration of 10 mmol/L was further diluted with DMSO to the desired concentrations (0.1, 0.5, 1, 2.5, 5 and 10 micromol/L), and the diluted solution was added to each well. The individual wells were further cultured in 5% carbon dioxide at 37° C. for 72 hours. […] Briefly, 10 μl MTS (3-(4,5-Dimethyl-2-thiazolyl)-5-(carboxymethoxyphenyl)-2-(4-sulfophenyl)-2H-tetrazolium was added to each well, and culturing was performed in 5% carbon dioxide at 37° C. for 2 hours. After this incubation and using a microplate spectrophotometer (Synergy 2 multi-mode microplate reader (BioTek)), the absorbance of each well was measured at 490 nm. The value for cells not incubated with a test compound was designated as 100%. By comparing these values with the absorbance difference obtained at the well in which each test compound was added, the cell viability (% viability) after treatment with the test compound was calculated.

Pim-2 = Pim-2 (Homo sapiens (Human), UniProt Q9P1W9); experiment: ADP-Glo Kinase Assay, Pim-2; format: biochemical; conditions: 1 μM compound; for inhibition at 1 µM: read-out: Pim-2 % INH (1 μM)
Chain of Pim-2 (Q9P1W9 whole entry): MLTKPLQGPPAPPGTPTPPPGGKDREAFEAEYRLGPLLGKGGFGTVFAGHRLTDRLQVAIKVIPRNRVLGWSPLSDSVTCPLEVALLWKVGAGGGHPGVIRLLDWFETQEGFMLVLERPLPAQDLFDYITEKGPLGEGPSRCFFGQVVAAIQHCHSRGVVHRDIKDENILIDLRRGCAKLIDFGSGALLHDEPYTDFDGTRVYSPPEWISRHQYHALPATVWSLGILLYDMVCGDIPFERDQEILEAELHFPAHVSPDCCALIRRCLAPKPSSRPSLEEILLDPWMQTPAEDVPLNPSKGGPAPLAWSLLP
Procedure: (§2) Compounds of the present invention were tested for their inhibitory activity against Pim-1, Pim-2, Pim-3, Flt3 wt, Flt3 ITD, CDK2/E and DYRK1. The testing of the compounds was carried out using the ADP-Glo™ Kinase Assay from Promega Corporation (Madison, Wis., USA).
(§3) The ADP-Glo™ Kinase Assay is a luminescent ADP detection assay to measure kinase activity by quantifying the amount of ADP produced during a kinase reaction. The kinase assay is performed in kinase assay buffer (5 mM MOPS, pH 7.5, 5 mM MgCl2, 0.4 mM EDTA, 1.5 mM DTT). Test samples initially dissolved in DMSO at 10 mM were diluted with the assay buffer to 1000 nM. A 30 μL volume/well of a mixture of substrates containing ATP (final ATP concentration in each kinase assay was equal to its apparent ATP Km).
(§4) The assay was performed in two steps: first, after the kinase reaction, an equal volume of ADP-Glo™ Reagent was added to terminate the kinase reaction and deplete the remaining ATP. Second, the Kinase Detection Reagent was added to simultaneously convert ADP to ATP and allowed the newly synthesized ATP to be measured using a luciferase/luciferin reaction. The luminescent signal generated was proportional to the ADP concentration produced and was correlated with kinase activity. A microplate spectrophotometer (Synergy 2 multi-mode microplate reader [BioTek]) was used for detecting the luminescence. The data was normalized and the percent of inhibition was obtained according to the following equation: […]

MV4-11 cells = experiment: Growth inhibition, MTS assay, MV4-11; format: cell-based, Human; conditions: MTS cell viability, read-out: MV4-11 ED50
Pim-1 = Pim-1 (Homo sapiens (Human), UniProt P11309); experiment: ADP-Glo Kinase Assay, Pim-1; format: biochemical; conditions: 1 μM compound; for inhibition at 1 µM: read-out: Pim-1 % INH (1 μM)
Chain of Pim-1 (P11309 whole entry): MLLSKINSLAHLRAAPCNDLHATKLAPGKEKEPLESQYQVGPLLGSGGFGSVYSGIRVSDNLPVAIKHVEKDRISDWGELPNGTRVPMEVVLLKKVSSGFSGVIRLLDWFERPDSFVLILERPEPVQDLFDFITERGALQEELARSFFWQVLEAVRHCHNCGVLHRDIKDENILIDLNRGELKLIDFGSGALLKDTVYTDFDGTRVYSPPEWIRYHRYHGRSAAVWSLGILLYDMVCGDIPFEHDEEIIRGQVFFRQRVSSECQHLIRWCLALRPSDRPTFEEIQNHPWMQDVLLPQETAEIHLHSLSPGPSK
How it was run: as §1

Pim-3 = Pim-3 (Homo sapiens (Human), UniProt Q86V86); experiment: ADP-Glo Kinase Assay, Pim-3; format: biochemical; conditions: 1 μM compound; for inhibition at 1 µM: read-out: Pim-3 % INH (1 μM)
Procedure: as §2, §3, §4

CDK2/E = CDK2/E (Homo sapiens (Human), UniProt P24941); experiment: ADP-Glo Kinase Assay, CDK2/E; format: biochemical; conditions: 1 μM compound; for inhibition at 1 µM: read-out: CDK2/E % INH (1 μM)
Procedure: as §2, §3, §4

DYRK1 = DYRK1 (Homo sapiens (Human), UniProt Q13627); experiment: ADP-Glo Kinase Assay, DYRK1; format: biochemical; conditions: 1 μM compound; for inhibition at 1 µM: read-out: DYRK1A % INH (1 μM)
How it was run: as §1

Chain of FLT3wt (P36888 27-993): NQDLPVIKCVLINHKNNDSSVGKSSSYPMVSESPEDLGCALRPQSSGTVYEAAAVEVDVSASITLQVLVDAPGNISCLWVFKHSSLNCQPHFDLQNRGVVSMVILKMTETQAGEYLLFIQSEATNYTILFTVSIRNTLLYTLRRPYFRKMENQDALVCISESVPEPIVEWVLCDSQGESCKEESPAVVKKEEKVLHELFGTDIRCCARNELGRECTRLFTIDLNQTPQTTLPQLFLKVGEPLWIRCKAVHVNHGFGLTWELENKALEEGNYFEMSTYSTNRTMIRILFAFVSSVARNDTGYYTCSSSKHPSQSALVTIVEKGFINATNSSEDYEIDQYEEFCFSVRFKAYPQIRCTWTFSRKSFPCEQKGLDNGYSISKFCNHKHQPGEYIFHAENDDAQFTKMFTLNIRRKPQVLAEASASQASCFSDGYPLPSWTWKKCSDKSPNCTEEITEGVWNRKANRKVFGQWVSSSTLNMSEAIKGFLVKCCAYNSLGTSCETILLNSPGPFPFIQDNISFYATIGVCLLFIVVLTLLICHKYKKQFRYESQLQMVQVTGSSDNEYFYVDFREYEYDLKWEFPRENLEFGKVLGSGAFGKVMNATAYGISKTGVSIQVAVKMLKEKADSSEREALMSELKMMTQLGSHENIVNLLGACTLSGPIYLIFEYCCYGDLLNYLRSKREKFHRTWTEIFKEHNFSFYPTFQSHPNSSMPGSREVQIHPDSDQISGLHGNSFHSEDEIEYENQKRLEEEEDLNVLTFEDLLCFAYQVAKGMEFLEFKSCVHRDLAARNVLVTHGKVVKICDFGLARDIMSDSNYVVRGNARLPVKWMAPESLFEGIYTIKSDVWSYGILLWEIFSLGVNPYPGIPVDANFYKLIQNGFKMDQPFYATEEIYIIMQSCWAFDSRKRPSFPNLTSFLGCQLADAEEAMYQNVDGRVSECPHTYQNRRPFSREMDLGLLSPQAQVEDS

| Compound | inhibition at 1 µM (FLT3wt) [%] | IC50 (HEL92 cells; Homo sapiens, 72 h) [µM] | IC50 (HepG2 cells; Homo sapiens, HepG2, 72 h) [µM] | IC50 (SW-480 cells; Homo sapiens, SW480) [µM] | inhibition at 1 µM (Pim-2) [%] | IC50 (MV4-11 cells; Homo sapiens, MV4-11, 72 h) [µM] | inhibition at 1 µM (Pim-1) [%] | inhibition at 1 µM (Pim-3) [%] | inhibition at 1 µM (CDK2/E) [%] | Flt3wt % INH (1 μM) (FLT3wt) [%] | DYRK1A % INH (1 μM) (DYRK1) [%] | IC50 (HEL92 cells; 72 hours) [µM] | IC50 (HepG2 cells; 72 hours) [µM] | IC50 (SW-480 cells) [µM] | Pim-2 % INH (1 μM) (Pim-2) [%] | IC50 (MV4-11 cells; 72 hours) [µM] | Pim-1 % INH (1 μM) (Pim-1) [%] | Pim-3 % INH (1 μM) (Pim-3) [%] | CDK2/E % INH (1 μM) (CDK2/E) [%] | inhibition at 1 µM (DYRK1) [%] |
| --- | --- | --- | --- | --- | --- | --- | --- | --- | --- | --- | --- | --- | --- | --- | --- | --- | --- | --- | --- | --- |
| CCn1c(NCCCN)nc2c([N+](=O)[O-])c(Br)c(Br)cc21 [Example 1C] | < 5 | > 10 | 4.1 | 7.4 | 28 | 3.1 | 85 | 70 | < 5 |  |  |  |  |  |  |  |  |  |  |  |
| O=[N+]([O-])c1c(Br)c(Br)cc2[nH]c(N3CCNCC3)nc12 [Example 1E] |  |  | 6.8 | 8.1 |  | 3.3 |  |  |  |  |  |  |  |  |  |  |  |  |  |  |
| CCn1c(N2CCCC(N)C2)nc2c([N+](=O)[O-])c(Br)c(Br)cc21.Cl (centres unmarked) [Example 1F] |  |  |  |  |  |  |  |  |  | 6 | 20 | 5.0 | 3.3 | 3.3 | 36 | 2.3 | 90 | 83 | <5 |  |
| CCn1c(NC2CCC(N)CC2)nc2c([N+](=O)[O-])c(Br)c(Br)cc21 (centres unmarked) [Example 1H] |  |  |  | 3.4 | 25 |  |  | 38 |  | <5 | 9 | 7.6 | 2.7 |  |  | 2.3 | 58 |  | <5 |  |
| CCn1c(N2CCC(N)CC2)nc2c([N+](=O)[O-])c(Br)c(Br)cc21 [Example 1I] |  |  |  |  |  |  |  |  |  |  |  |  | 4.3 | 5.6 |  | 5.1 |  |  |  |  |
| C#CCn1c(N2CCNCC2)nc2c([N+](=O)[O-])c(Br)c(Br)cc21 [Example 2B, 5,6-dibromo-4-nitro-2-(piperazin-1-yl)-1-(prop-2-yn-1-yl)-1H-1,3-benzodiazole hydrochloride] | < 5 | 6.7 | 1.4 | 5.5 |  | 3.1 | 53 |  | < 5 |  |  |  |  |  |  |  |  |  |  | 61 |
| C#CCn1c(NCCCN)nc2c([N+](=O)[O-])c(Br)c(Br)cc21 [Example 2G, N-(3-aminopropyl)-5,6-dibromo-4-nitro-1-(prop-2-yn-1-yl)-1H-1,3-benzodiazol-2-amine hydrochloride] | 10 | 6 | 1.3 | 3.1 |  | 2.3 | 71 | 34 | < 5 |  |  |  |  |  |  |  |  |  |  | 25 |
| CC(C)n1c(N2CCN[C@H](C)C2)nc2c([N+](=O)[O-])c(Br)c(Br)cc21 [Example 22AA, 5,6-dibromo-2-[(3R)-3-methylpiperazin-1-yl]-4-nitro-1-(propan-2-yl)-1H-1,3-benzodiazole] | 49 | 1.2 | 1.8 |  | 36 | 0.5 | > 95 | 88 | 11 |  |  |  |  |  |  |  |  |  |  | 43 |
| CCn1c(N2CCCN(C)CC2)nc2c([N+](=O)[O-])c(Br)c(Br)cc21 [Example 22M, 5,6-dibromo-1-ethyl-2-(4-methyl-1,4-diazepan-1-yl)-4-nitro-1H-1,3-benzodiazole] | < 5 | 6.5 | 5 | 4.7 | 18 | 3.7 | 74 | 29 | < 5 |  |  |  |  |  |  |  |  |  |  |  |
| CCn1c(NCC2CCN(CCN(C)C)C2)nc2c([N+](=O)[O-])c(Br)c(Br)cc21 (centres unmarked) [Example 22O, 5,6-dibromo-N-({1-[2-(dimethylamino)ethyl]pyrrolidin-3-yl}methyl)-1-ethyl-4-nitro-1H-1,3-benzodiazol-2-amine] |  | 2.5 | 1.4 | 1.4 |  | 2.8 |  |  |  |  |  |  |  |  |  |  |  |  |  |  |
| CCn1c(NCCCN2CCCC2)nc2c([N+](=O)[O-])c(Br)c(Br)cc21 [Example 22P, 5,6-dibromo-1-ethyl-4-nitro-N-[3-(pyrrolidin-1-yl)propyl]-1H-1,3-benzodiazol-2-amine] |  | 5.9 | 2.7 | 2.5 |  | 2.9 |  |  |  |  |  |  |  |  |  |  |  |  |  |  |
| CCn1c(N2CCNC(C)(C)C2)nc2c([N+](=O)[O-])c(Br)c(Br)cc21 [Example 22W, 5,6-dibromo-2-(3,3-dimethylpiperazin-1-yl)-1-ethyl-4-nitro-1H-1,3-benzodiazole] | < 5 | 9.5 | 1.5 | 4.9 |  | 1.7 | 80 | 57 | < 5 |  |  |  |  |  |  |  |  |  |  |  |
| CCn1c(N2CCNC(C)C2)nc2c([N+](=O)[O-])c(Br)c(Br)cc21 (centres unmarked) [Example 22X, 5,6-dibromo-1-ethyl-2-(3-methylpiperazin-1-yl)-4-nitro-1H-1,3-benzodiazole] | < 5 | 8.7 | 2.3 | 5 |  | 0.7 | 74 | 56 | < 5 |  |  |  |  |  |  |  |  |  |  | 39 |
